Reference: patent US9233951B2, “Heterocyclic compounds as pesticides” (Bayer Intellectual Property GmbH, priority 2010, dated 2016)
Like-named read-outs stand apart in the source and are kept apart here.

How the values were obtained:
[1] = test system: green peach aphid (Myzus persicae); test: Myzus persicae test (spray treatment); assay type: in vivo; conditions: foliar, 144 h, read-out: efficacy in %
Protocol: Myzus persicae Test (Spray Treatment)
• Solvent: 78 parts by weight of acetone • 1.5 parts by weight of dimethylformamide • Emulsifier: 0.5 part by weight of alkylaryl polyglycol ether
To prepare an appropriate active ingredient preparation, 1 part by weight of active ingredient is mixed with the stated amounts of solvent and emulsifier, and the concentrate is diluted with emulsifier-containing water to the desired concentration. Discs of Chinese cabbage (Brassica pekinensis) infested by all stages of the green peach aphid (Myzus persicae) are sprayed with an active ingredient preparation of the desired concentration.
After 6 days, the efficacy in % is determined. 100% means that all of the aphids have been killed; 0% means that none of the aphids have been killed.

physchem = assay type: physicochemical; conditions: reverse-phase HPLC column (C 18)
Protocol: 1 Method Description for Determination of the logP values and Mass Detection
Eluents for determination in the acidic range (pH 3.4): • Eluent A: acetonitrile+1 ml formic acid/l.
The λmax values were determined in the maxima of the chromatographic signals using the UV spectra from 200 nm to 400 nm. The mass was detected (M^+, m/z) by means of an Agilent MSD mass spectrometer.

[2] = test system: armyworm (Spodoptera frugiperda); test: Spodoptera frugiperda test (spray treatment); assay type: in vivo; conditions: application rate 500 g/ha; maize leaf discs sprayed; after 7 days; 100% = all caterpillars killed
Protocol: Spodoptera frugiperda Test (Spray Treatment)
• Solvent: 78.0 parts by weight of acetone • 1.5 parts by weight of dimethylformamide • Emulsifier: 0.5 part by weight of alkylaryl polyglycol ether
To prepare an appropriate active ingredient preparation, 1 part by weight of active ingredient is mixed with the stated amounts of solvent and emulsifier, and the concentrate is diluted with emulsifier-containing water to the desired concentration. Discs of maize leaves (Zea mays) are sprayed with an active ingredient preparation of the desired concentration and, after drying, populated with the armyworm (Spodoptera frugiperda).
After 7 days, the efficacy in % is determined. 100% means that all caterpillars have been killed; 0% means that none of the caterpillars have been killed.

[3] = pH 3.4, HPLC, reverse-phase C 18, acidic range pH 3.4, 55° C., table of compounds, read-out: logP (HCO2H)
[4] = pH 3.4, HPLC-MS value printed in the preparation example text, acidic range pH 3.4, read-out: logP (HCOOH)
[5] = application rate 500 g/ha, Chinese cabbage leaf discs sprayed, after 6 days, 100% = all aphids killed

Row | chromatographic logP (physchem; [3]) | SMILES | pest or weed control at 500 g/ha ([1]; in Brassica rapa) | chromatographic logP (physchem; [4]) | efficacy in % [2] | pest or weed control at 500 g/ha [1, 5]
1 | 1.28 | C=C(Cl)CNC(=O)c1ccc(-c2cccnc2)o1 [Compound 19] |  |  |  | 100%
2 | 0.72 | CN(CC#N)C(=O)c1ccc(-c2cccnc2)o1 [Compound 16] |  |  |  | 90%
3 | 1.46 | O=C(NCc1cccs1)c1ccc(-c2cccnc2)o1 [Compound 17] |  |  |  | 100%
4 | 1.13 | O=C(NCC(F)(F)F)c1coc(-c2cccnc2)c1 [Compound 12, 5-(Pyridin-3-yl)-N-(2,2,2-trifluoroethyl)furan-3-carboxamide] |  | 1.13 |  | 90%

Second part, the compound before the results:

Row | SMILES | chromatographic logP (physchem; [3]) | pest or weed control at 500 g/ha ([1]; in Brassica rapa) | chromatographic logP (physchem; [4]) | efficacy in % [2] | pest or weed control at 500 g/ha [1, 5]
5 | CC(F)(F)CNC(=O)c1cn(-c2cccnc2)nn1 [Compound 37, N-(2,2-Difluoropropyl)-1-(pyridin-3-yl)-1H-1,2,3-triazole-4-carboxamide] | 1.21 | 100% | 1.25 | 100% | 
6 | O=C(NCC(F)(F)F)c1ccn(-c2cccnc2)c1 [Compound 36, 1-(Pyridin-3-yl)-N-(2,2,2-trifluoroethyl)pyrrole-3-carboxamide] | 1.24 | 90% | 1.24 |  | 
7 | CCN(CC)C(=O)c1ccc(-c2cccnc2)o1 [Compound 6] | 1.23 |  |  |  | 100%
8 | CN(C)C(=O)c1ccc(-c2cccnc2)o1 [Compound 7] | 0.51 |  |  |  | 100%
